A short description of data set [1]: Solubility (physico-chemical properties). Format: physicochemical.
Data set [2] has as its system Jurkat cells. The experiment in a line: Evaluation of cellular viability by MTT assay. To be noted: 10 µM, incubated 18-24 hr, MTT, absorbance 570 nm. Format: cell-based, human. How it is done:
Jurkat, an acute T-lymphoblastic leukemia cell line generated from a person, have been used. Cell culture have been cultured in RPMI-1640 culture medium containing 10% FBS.
Jurkat cells were cultured at 1x10^5 cells/ml in RPMI 1640 medium supplemented with 10% fetal bovine serum (FBS), 2mM L-glutamine and 100 U/ml penicillin + 100 ug/ml streptomycin.
To detect drug effect in vitro, MTT [3-(4,5-dimethylthiazol-2-yl)-2,5-diphenyltetrazolium bromide] assay was used as described (Carmichael J et al., 1987 Cancer Res. 47, 936-42). Briefly, cells were seeded in triplicate on 96-well culture plates at a density of 20000 cells/well. The drugs were added in order to have the final concentration of 10 µM (1 µl of a solution of 10mM in DMSO) and incubated for 18-24 hr. Then MTT (0.5 mg/ml) was added to each well, and plates were incubated for an additional 1 to 3 hr in the dark at 37 °C. After this time the MTT solution was aspirated from the wells and 0.1 ml of DMSO was added. The plates were allowed to stand for 10 min, and then the absorbance was determined in a SpectraCount (Packard) microplate reader at 570 nm. The drug effect was determined by comparing absorbances of treated and untreated cells.
For orientation: Tetrazolium dyes change colour on reduction, which living cells bring about.

Data set [3] has as its system reverse passive Arthus reaction, mouse ear pinna. The experiment in a line: Reverse passive Arthus reaction (RPA) in the mouse ear pinna: oedema and Evans blue extravasation. To be noted: mouse ear. Format: in vivo. From the text: The Arthus model (RPA) is a model of immune-complex mediated tissue damage that involves the passive subcutaneous introduction of an antibody and the systemic administration of the corresponding antigen. This inflammatory model has been used to test the in vivo activity of the synthesised molecules.
The reverse passive Arthus reaction is induced, in the mouse ear pinna, by the subcutaneous injection of an excess of IgG anti human albumin followed by i.v. adiministration of the corresponding Ag (i.e. human albumin) together with Evans blue, 2 mg for each mouse, for the evaluation of extravasation.
(§1) The tested molecules were solubilised in DMSO, cremophor and PBS in a ratio of 1:1:18 and administered usually by intraperitonelly at the dosage of 10 mg/Kg 1 hour before the induction of anafilactic reaction. The animals were sacrificed 3 hours after the molecule administration.
The oedema and the extravasations are evaluated tree hours after the i.v. administration of the antigen. The oedema is evaluated as the increase of weight of lesioned ear area dissected by a 8 mm biopsy punch as compared to the contralateral unlesioned auricular tissues. The extravasation is measured determining the Evans blue density at 620 nm in the supernatants deriving from ear homogenates following centrifugation at 10000 x g for 20 min.

A short description of data set [4]: Rectal temperature (central cannabinoid effect, hypothermia). It counts as in vivo, mouse. Particulars: treated animals; Vehicle 0,1 ± 0,2. How it is done:
as §1
TABLE 4. Rectal temperature in animals that have been treated with cannabinoids, endocannabinoids or molecules that are object of the present invention. Note a profound hypothermia induced by synthetic cannabinoid such as Win 55,212 or the endocannabinoid Anandamide while no alteration was induced by molecules that are object of the present invention.

Turning to `CCCCCCCCCCCCCCCC(=O)NC1CCCCC1` [Example 15, N-cyclohexyl-palmitoyl amide], the “solubility in organic solvents” value in data set [1] (in DMSO and in chloroform) is >10 mg/ml in DMSO and in chloroform. Also, in data set [1] (water), the solubility in water entry is given as “scarcely soluble”. In addition, the “Growth inhibition (% of control)” value in data set [2] is 63.2 % of control. Moreover, the Extravasation in data set [3] (10 mg/Kg i.p., Evans blue density at 620 nm in ear homogenate supernatant, Vehicle 0,90±0,06, Naïve 0,04±0,01) is 0,58±0,16. In addition, the “Oedema (mg)” value in data set [3] (10 mg/Kg intraperitoneally 1 hour before induction, weight increase of 8 mm punch vs contralateral ear, three hours after antigen, Vehicle 49,8 ± 1,2, Naive 23,7 ± 1,2) is 47,5 ± 4,2 mg. The “ΔT (°C) rectal temperature” value in data set [4] is 0,1 ± 0,1 °C.

Source of the values: EP1592418B1, “USE OF ENDOCANNABINOID-LIKE COMPOUNDS FOR TREATING CNS DEGENERATIVE DISORDERS” (Research & Innovation S.p.A., priority 2003, dated 2004).
